# Patent publication US20250214960A1, “COMPOUNDS HAVING ACTIVITY OF DEGRADING GSPT1 AND APPLICATION THEREOF” (SHANGHAI MEIZER PHARMACEUTICALS CO., LTD., priority 2021, published 2025)
# Where two headings read alike, the source gives them in different places.
# Target: T1, GSPT1 protein (Homo sapiens, UniProt P15170+Q96SW2)
# T1 construct: endogenous in cells; host or cells: Jeko-1
# Experiment: Western blot detection of degradation activity of GSPT1 protein in Jeko-1 cells
# Format: cell-based
# Conditions: for inhibition at 0.1 µM / inhibition at 10 µM / inhibition at 0.01 µM / inhibition at 1 µM: JeKo-1, 24 h, read-out: GSPT1 degradation rate (%)
# Procedure: Test Example 1: Western Blot Detection of Degradation Activity of GSPT1 Protein by the Compounds
# Cell line: Jeko-1 cell line was cultured with an RPMI1640 media containing 20% fetal bovine serum in an incubator at 37° C., 5% CO2, and saturated humidity.
# DMSO control group and test compound (concentration shown in the table below) were set up, after processing for 24 hours, the cells were collected, pre-cooled cell lysate was added and left on ice for 10 minutes. The total protein of the cells was extracted, and the protein concentration was measured and quantified using the BCA method. Routine gel preparation, sample loading, electrophoresis were conducted, then the membrane was transferred, and sealed, wherein the primary antibody was diluted with a blocking solution at 1:500-5000. The membrane was immersed in the diluted primary antibody and incubated overnight at 4° C. After rinsing, the secondary antibody was diluted with a sealing solution at 1:10000-20000, the membrane was immersed in the diluted secondary antibody, and incubated at room temperature for 45 minutes. After rinsing, the results were tested on ODYSSEY (Li-COR). GAPDH was used as an internal reference control.
# Image J software was used to perform gray level analysis on each band and the degradation rate of GSPT1 protein by the compounds was calculated.
# T1 sequence (P15170 whole entry): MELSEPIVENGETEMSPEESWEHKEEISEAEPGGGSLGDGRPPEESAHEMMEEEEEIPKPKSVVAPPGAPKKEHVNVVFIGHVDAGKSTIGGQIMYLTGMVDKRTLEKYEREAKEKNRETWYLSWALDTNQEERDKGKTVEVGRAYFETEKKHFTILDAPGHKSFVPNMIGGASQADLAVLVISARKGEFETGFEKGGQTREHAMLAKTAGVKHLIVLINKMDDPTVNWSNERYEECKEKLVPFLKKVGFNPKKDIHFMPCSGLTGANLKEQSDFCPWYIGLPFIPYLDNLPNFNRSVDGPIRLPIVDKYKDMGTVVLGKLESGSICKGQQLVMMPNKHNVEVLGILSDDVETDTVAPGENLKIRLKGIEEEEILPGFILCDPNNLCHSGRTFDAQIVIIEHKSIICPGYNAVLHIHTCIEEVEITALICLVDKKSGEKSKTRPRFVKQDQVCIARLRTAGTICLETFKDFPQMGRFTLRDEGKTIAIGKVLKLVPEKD
# T1 sequence (Q96SW2 whole entry): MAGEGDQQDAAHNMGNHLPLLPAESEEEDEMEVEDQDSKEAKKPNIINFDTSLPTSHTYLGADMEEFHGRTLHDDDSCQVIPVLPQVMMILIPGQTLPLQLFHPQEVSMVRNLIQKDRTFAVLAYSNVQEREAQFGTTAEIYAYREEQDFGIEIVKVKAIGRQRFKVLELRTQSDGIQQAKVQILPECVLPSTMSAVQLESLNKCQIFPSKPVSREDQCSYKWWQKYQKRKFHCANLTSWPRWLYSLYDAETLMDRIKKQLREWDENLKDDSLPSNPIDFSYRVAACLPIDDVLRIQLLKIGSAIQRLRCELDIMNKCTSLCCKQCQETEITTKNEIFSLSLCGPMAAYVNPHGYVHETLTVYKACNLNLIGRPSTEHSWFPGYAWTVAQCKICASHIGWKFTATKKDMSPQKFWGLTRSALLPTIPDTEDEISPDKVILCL
# T1 sequence (Q16531 whole entry partner): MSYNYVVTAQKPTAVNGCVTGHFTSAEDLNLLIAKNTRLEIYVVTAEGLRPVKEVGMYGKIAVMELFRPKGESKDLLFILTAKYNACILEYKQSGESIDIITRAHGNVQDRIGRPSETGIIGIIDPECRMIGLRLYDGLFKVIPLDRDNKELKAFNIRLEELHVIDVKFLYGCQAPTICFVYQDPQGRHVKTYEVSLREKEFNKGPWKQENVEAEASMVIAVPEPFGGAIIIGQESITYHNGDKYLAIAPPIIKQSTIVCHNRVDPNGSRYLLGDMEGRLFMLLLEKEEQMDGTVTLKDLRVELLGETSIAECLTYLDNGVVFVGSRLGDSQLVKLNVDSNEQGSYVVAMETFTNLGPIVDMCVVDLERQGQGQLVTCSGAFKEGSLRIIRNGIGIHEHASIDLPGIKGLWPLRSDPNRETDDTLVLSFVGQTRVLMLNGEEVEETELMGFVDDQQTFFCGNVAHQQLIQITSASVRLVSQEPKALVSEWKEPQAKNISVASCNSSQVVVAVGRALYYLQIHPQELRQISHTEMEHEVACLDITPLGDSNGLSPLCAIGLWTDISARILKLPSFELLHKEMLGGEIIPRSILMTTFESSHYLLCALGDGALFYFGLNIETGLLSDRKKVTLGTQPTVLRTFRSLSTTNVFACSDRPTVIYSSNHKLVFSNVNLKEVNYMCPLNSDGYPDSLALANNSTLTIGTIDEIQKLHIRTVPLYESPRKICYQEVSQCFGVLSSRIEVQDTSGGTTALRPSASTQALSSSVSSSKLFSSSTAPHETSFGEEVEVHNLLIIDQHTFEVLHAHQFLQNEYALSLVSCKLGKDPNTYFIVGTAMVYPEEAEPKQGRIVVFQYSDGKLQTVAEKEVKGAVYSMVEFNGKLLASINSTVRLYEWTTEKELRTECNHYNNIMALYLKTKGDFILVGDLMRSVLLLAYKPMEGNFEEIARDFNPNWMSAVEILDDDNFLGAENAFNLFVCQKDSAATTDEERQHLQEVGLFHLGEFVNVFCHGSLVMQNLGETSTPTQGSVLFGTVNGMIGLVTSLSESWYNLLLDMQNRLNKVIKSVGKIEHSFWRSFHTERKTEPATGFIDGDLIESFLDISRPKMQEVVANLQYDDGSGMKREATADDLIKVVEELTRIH
"inhibition at 0.1 µM (100 nM, Jeko-1 cells, 24 hours) [%]","inhibition at 10 µM (10 μM, Jeko-1 cells, 24 hours) [%]",SMILES,also measured
,,"CC(C)OC(=O)N[C@H](C(=O)NCc1ccc2c(c1)CN(C1CCC(=O)NC1=O)C2=O)c1ccccc1 (stereo partly drawn) [Compound 4-160, Isopropyl ((1S)-2-((2-(2,6-dioxypiperidin-3-yl)-1-oxoisoindoline-5-yl)methyl)amino)-2-oxo-1-phenylethy 1) carbamate]",inhibition at 0.1 µM: 96%; inhibition at 10 µM: 89%
41.3,87.1,O=C1CCC(N2Cc3cc(CNC(=O)[C@H](CC4CCCCC4)NC(=O)C4CCCC4)ccc3C2=O)C(=O)N1 (stereo partly shown) [Compound 5-54],
96.2,95.5,"CC(C)(C)OC(=O)N[C@H](Cc1ccccc1Cl)C(=O)NCc1ccc2c(c1)CN(C1CCC(=O)NC1=O)C2=O (stereo partly drawn) [Compound 5-83, Tert butyl ((2R)-3-(2-chlorophenyl)-1-((2-(2,6-dioxopyridin-3-yl)-1-oxoisoidoline-5-yl)methyl)amino)-1-oxopropan-2-yl) carbamate]",
65.2,84.6,"CN(C(=O)OC(C)(C)C)C(C(=O)NCc1ccc2c(c1)CN(C1CCC(=O)NC1=O)C2=O)c1ccc(Cl)c(Cl)c1 (stereo not shown) [Compound 5-76, Tert butyl (1-(3,4-dichlorophenyl)-2-((2-(2,6-dioxopyridin-3-yl)-1-oxoisoidoline-5-yl)methyl)amino)-2-oxoethyl (methyl) carbamate]",
26,56,CC(C)(C)NC(=O)CNC(Cc1ccccc1)C(=O)NCc1ccc2c(c1)CN(C1CCC(=O)NC1=O)C2=O (stereo not shown) [Compound 4-186],
,,"O=C1CCC(N2Cc3cc(CNC(=O)C(CNC(=O)OC4CCCC4)c4ccccc4)ccc3C2=O)C(=O)N1 (stereo not shown) [Compound 5-3, Cyclopentyl (3-((2-(2,6-dioxypiperidin-3-yl)-1-oxoisoindolin-5-yl)methyl)amino)-3-oxo-2-phenylpropyl) carbamate]",inhibition at 0.1 µM: 76%; inhibition at 10 µM: 49%
,,"O=C1CCC(N2Cc3cc(CNC(=O)[C@@H](NC(=O)OC4CCOC4)c4ccccc4)ccc3C2=O)C(=O)N1 (stereo partly drawn) [Compound 6-01, ((1S)-2-(((2-(2,6-dioxopyridin-3-yl)-1-oxoisoindoline-5-yl)methyl)amino)-2-oxo-1-phenylethyl) carbamate-β-Oxocyclopentanol Ester]",inhibition at 0.01 µM: 10%; inhibition at 1 µM: 68%
,,"CC(C)OC(=O)N[C@@H](Cc1ccccc1)C(=O)NCc1ccc2c(c1)CN(C1CCC(=O)NC1=O)C2=O (stereo partly drawn) [Compound 5-39, Isopropyl ((2S)-1-(2-(2,6-dioxypiperidin-3-yl)-1-oxoisoindoline-5-yl)methyl)amino)-1-oxo-3-phenylprop-2-yl) carbamate]",inhibition at 0.1 µM: 65.2%; inhibition at 10 µM: 85.8%
29,88,"CC(C)(C)OC(=O)NC[C@@H](Cc1ccccc1)C(=O)NCc1ccc2c(c1)CN(C1CCC(=O)NC1=O)C2=O (stereo partly drawn) [Compound 4-171, Tert butyl ((2R)-2-benzyl-3-((2-(2,6-dioxypiperidin-3-yl)-1-oxoisoindolin-5-yl)methyl)amino)-3-oxopropyl) carbamate]",
,,O=C1CCC(N2Cc3cc(CNC(=O)C(CNC(=O)C4CCCC4)c4ccccc4)ccc3C2=O)C(=O)N1 (stereo not shown) [Compound 5-9],"GSPT1 degradation rate (%) (100 nM, Jeko-1 cells, 24 hours): 45%; GSPT1 degradation rate (%) (10 μM, Jeko-1 cells, 24 hours): 93%"
,,O=C1CCC(N2Cc3cc(CNC(=O)C(CNC(=O)c4ccccc4)c4ccccc4)ccc3C2=O)C(=O)N1 (stereo not shown) [Compound 5-26],inhibition at 0.1 µM: 33%; inhibition at 10 µM: 98%
98,97,"O=C1CCC(N2Cc3cc(CNC(=O)[C@@H](NC(=O)OCc4ccccc4)c4ccccc4)ccc3C2=O)C(=O)N1 (stereo partly drawn) [Compound 4-139, Benzyl ((1S)-2-((2-(2,6-dioxypiperidin-3-yl)-1-oxoisoindoline-5-yl)methyl)amino)-2-oxo-1-phenylethyl) carbamate]",
21,85,"O=C1CCC(N2Cc3cc(CNC(=O)[C@@H](NC(=O)NCc4ccccc4)c4ccccc4)ccc3C2=O)C(=O)N1 (stereo partly drawn) [Compound 4-184, (2S)-2-(3-benzylurea)-N-((2-(2,6-dioxopyridin-3-yl)-1-oxoisoidoline-5-yl)methyl)-2-phenylacetamide]",
18,71,CC(C)(C)NC(=O)NCC(C(=O)NCc1ccc2c(c1)CN(C1CCC(=O)NC1=O)C2=O)c1ccccc1 (stereo not shown) [Compound 5-12],
26.1,91.2,"O=C1CCC(N2Cc3cc(CNC(=O)C(CNC(=O)C4CCCC4)c4ccccc4)ccc3C2=O)C(=O)N1 [Compound 5-53, N-((2R)-3-((2-(2,6-dioxypiperidin-3-yl)-1-oxoisoindolin-5-yl)methyl)amino)-3-oxo-2-phen ylpropyl) cyclopentyl Formamide]",
38.1,92.7,O=C1CCC(N2Cc3cc(CNC(=O)[C@@H](CNC(=O)C4CCCC4)c4ccc(Cl)cc4)ccc3C2=O)C(=O)N1 (stereo partly shown) [Compound 5-52],
11.6,87.9,"CC(C)(C)OC(=O)N[C@@H](CC(N)=O)C(=O)NCc1ccc2c(c1)CN(C1CCC(=O)NC1=O)C2=O (stereo partly drawn) [Compound 5-43, Tert butyl ((2S)-4-amino-1-((2-(2,6-dioxypiperidin-3-yl)-1-oxoisoindolin-5-yl)methyl)amino)-1,4-dioxobutane-2-yl) carbamate]",
32,63,"CC(C)(C)NC(=O)NCC(Cc1ccccc1)C(=O)NCc1ccc2c(c1)CN(C1CCC(=O)NC1=O)C2=O (stereo not shown) [Compound 4-188, 2-Benzyl-3-(3-(tertbutyl)urea)-N-((2-(2,6-dioxypiperidin-3-yl)-1-oxoisoindoline-5-yl)methyl) propionamide]",
52.7,82.7,"CC(C)C[C@H](NC(=O)OC(C)(C)C)C(=O)NCc1ccc2c(c1)CN(C1CCC(=O)NC1=O)C2=O (stereo partly drawn) [Compound 5-84, Tert butyl ((2S)-1-((2-(2,6-dioxypiperidin-3-yl)-1-oxoisoidoline-5-yl)methyl)amino)-4-methyl-1-oxapent-2-yl) carbamate]",
85.1,93.9,"CC(C)(C)OC(=O)NCC(C(=O)NCc1ccc2c(c1)CN(C1CCC(=O)NC1=O)C2=O)C1CCCCC1 (stereo not shown) [Compound 5-55, Tert butyl (2-cyclohexyl-3-((2-(2,6-dioxypiperidin-3-yl)-1-oxoisoindoline-5-yl)methyl)amino)-3-oxopropyl) carbamate]",
,,"O=C1CCC(N2Cc3cc(CNC(=O)[C@@H](NC(=O)OC4CCOCC4)c4ccccc4)ccc3C2=O)C(=O)N1 (stereo partly drawn) [Compound 6-03, ((1S)-2-(((2-(2,6-dioxopyridin-3-yl)-1-oxoisoindoline-5-yl)methyl)amino)-2-oxo-1-phenylethyl) carbamate-γ-Oxyhexanol Ester]",inhibition at 0.01 µM: 28%; inhibition at 1 µM: 90%
,,"CC(C)(C)OC(=O)N[C@@H](C(=O)NCc1ccc2c(c1)CN(C1CCC(=O)NC1=O)C2=O)c1ccccc1 (stereo partly drawn) [Compound 4-108, Tert butyl ((1R)-2-((2-(2-(2,6-Dioxopiperidin-3-yl)-1-oxoisoindolin-5-yl)methyl)amino)-2-oxo-1-phenylethyl) carbamate]","inhibition at 0.01 µM (10 nM, Jeko-1 cells, 24 hours): 10%; inhibition at 1 µM (1 μM, Jeko-1 cells, 24 hours): 95%"
,,"O=C1CCC(N2Cc3cc(CNC(=O)C(CNC(=O)Nc4ccccc4)c4ccccc4)ccc3C2=O)C(=O)N1 (stereo not shown) [Compound 5-11, N-((2-(2,6-dioxypiperidin-3-yl)-1-oxoisoindolin-5-yl)methyl)-2-phenyl-3-(3-phenylurea) propionamide]",inhibition at 0.1 µM: 17%; inhibition at 10 µM: 77%
51,94,"CC(C)(C)OC(=O)NC(CC(=O)NCc1ccc2c(c1)CN(C1CCC(=O)NC1=O)C2=O)c1ccccc1 (stereo not shown) [Compound 4-130, Tert butyl (3-((2-(2,6-dioxypiperidin-3-yl)-1-oxoisoindolin-5-yl)methyl)amino)-3-oxo-1-phenylpropyl) carbamate]",
16,70,O=C1CCC(N2Cc3cc(CNC(=O)[C@@H](CNC(=O)C4CCCC4)c4ccccc4)ccc3C2=O)C(=O)N1 (stereo partly shown) [Compound 5-95],
96,97,CC(C)(C)OC(=O)NCC(C(=O)NCc1ccc2c(c1)CN(C1CCC(=O)NC1=O)C2=O)c1ccccc1 (stereo not shown) [Compound 4-131],
14,81,COC(C(=O)N[C@H](C(=O)NCc1ccc2c(c1)CN(C1CCC(=O)NC1=O)C2=O)c1ccccc1)c1ccccc1 (stereo partly shown) [Compound 4-199],
,,"O=C1CCC(N2Cc3cc(CNC(=O)[C@@H](NC(=O)OC4CCCCC4)c4ccccc4)ccc3C2=O)C(=O)N1 (stereo partly drawn) [Compound 6-02, ((1S)-2-(((2-(2,6-dioxypiperidin-3-yl)-1-oxoisoindoline-5-yl)methyl)amino)-2-oxo-1-phenylethyl) carbamate Cyclohexanol Ester]",inhibition at 0.01 µM: 95%; inhibition at 1 µM: 96%
28,93,"CC(C)(C)C(=O)NCC(C(=O)NCc1ccc2c(c1)CN(C1CCC(=O)NC1=O)C2=O)c1ccccc1 (stereo not shown) [Compound 5-23, N-((2-(2,6-dioxypiperidin-3-yl)-1-oxoisoidoline-5-yl)methyl)-2-phenyl-3-terpentylaminopropionamide]",
